In assay [1] the target is T1, BChE (Homo sapiens, UniProt P06276). Put plainly: Microtiter (Ellman) assay for BChE inhibition. Format: biochemical. Particulars: for inhibition at 100 µg/mL: read-out: ChE Inhibition (Inhibition % ± S.D. at 100 µg/mL) BChE. How it is done: (§1) Inhibition of AChE and BChE was determined by Ellman’s method with slight modifications. To the reaction mixture, 140 µL of […] sodium phosphate buffer (pH 8), 20 µL of DTNB, 20 µL of enzyme (either AChE or BChE) and 20 µL of the samples to be tested was added later incubated for 15 min at 25 °C. About 10 µL of […] or butyrylthiocholine chloride which act as substrates to react with DTNB forming 5-thio-2-nitrobenzoate anion, that formed a yellow-colored complex, was added into the incubated sample. The absorbance is measured at 417 nm using a 96-well ELISA microplate reader (VersaMax, Molecular Devices, San Jose, CA, USA) Galanthamine was used the reference drug.
(§2) The measurements and calculations were evaluated by using Softmax PRO 4.3.2.LS software. Percentage of inhibition of AChE/BChE/TYR was determined by comparison of rates of reaction of test samples relative to blank samples. Extent of the enzymatic reaction was calculated based on the following equation: I% = (C-T)/C × 100, where I% is the activity of the enzyme as percent inhibition. E value expresses the effect of the test sample or the positive control on AChE/BChE/TYR enzyme activity articulated as the percentage of the remaining activity in the presence of test sample or positive control. C value is the absorbance of the control solvent (blank) in the presence of enzyme, where T is the absorbance of the tested sample (plant extract or positive control in the solvent) in the presence of enzyme.
On the technique in general: Ellman's reagent forms a yellow product with free thiols.

Assay [2] addresses T2, AChE (Homo sapiens, UniProt P22303). The experiment in a line: biochemical. Particulars: for inhibition at 100 µg/mL: read-out: ChE Inhibition (Inhibition % ± S.D. at 100 µg/mL) AChE. The method, then:
as §1, §2

For assay [3], the system named is AChE of electric eel origin. Particulars: cited from earlier work.
For assay [4], the target named is T2, AChE. Particulars: cited from earlier work.
For assay [5], the target named is T1, BChE. Particulars: cited from earlier work.
The mark [6] stands for this setting: at 100 µg/mL, n: 3, '-' = No inhibition.
The mark [7] stands for this setting: at 100 μg/mL, from Verbascum xanthophoeniceum and V. mucronatum.

≈ marks a conversion by molar mass, not a printed value. Like-named read-outs stand apart in the source and are kept apart here. Bounds are passed on as bounds.

T2 sequence (P22303 32-614): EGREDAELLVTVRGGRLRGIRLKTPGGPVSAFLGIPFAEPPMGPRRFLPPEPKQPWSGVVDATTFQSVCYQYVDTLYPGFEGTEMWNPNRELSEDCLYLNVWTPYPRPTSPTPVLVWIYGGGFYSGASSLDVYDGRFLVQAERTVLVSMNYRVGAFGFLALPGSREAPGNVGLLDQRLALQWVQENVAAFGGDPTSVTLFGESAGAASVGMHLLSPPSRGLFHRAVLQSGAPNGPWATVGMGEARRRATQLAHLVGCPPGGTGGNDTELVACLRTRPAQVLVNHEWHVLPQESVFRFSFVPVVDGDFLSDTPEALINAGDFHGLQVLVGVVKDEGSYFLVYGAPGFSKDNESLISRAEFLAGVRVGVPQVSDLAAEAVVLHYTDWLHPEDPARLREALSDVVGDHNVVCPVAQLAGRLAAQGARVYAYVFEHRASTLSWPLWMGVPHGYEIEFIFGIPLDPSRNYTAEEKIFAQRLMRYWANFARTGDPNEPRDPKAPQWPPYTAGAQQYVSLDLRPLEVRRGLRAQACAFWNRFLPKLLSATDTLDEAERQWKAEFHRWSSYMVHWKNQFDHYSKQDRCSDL
T1 sequence (P06276 29-602): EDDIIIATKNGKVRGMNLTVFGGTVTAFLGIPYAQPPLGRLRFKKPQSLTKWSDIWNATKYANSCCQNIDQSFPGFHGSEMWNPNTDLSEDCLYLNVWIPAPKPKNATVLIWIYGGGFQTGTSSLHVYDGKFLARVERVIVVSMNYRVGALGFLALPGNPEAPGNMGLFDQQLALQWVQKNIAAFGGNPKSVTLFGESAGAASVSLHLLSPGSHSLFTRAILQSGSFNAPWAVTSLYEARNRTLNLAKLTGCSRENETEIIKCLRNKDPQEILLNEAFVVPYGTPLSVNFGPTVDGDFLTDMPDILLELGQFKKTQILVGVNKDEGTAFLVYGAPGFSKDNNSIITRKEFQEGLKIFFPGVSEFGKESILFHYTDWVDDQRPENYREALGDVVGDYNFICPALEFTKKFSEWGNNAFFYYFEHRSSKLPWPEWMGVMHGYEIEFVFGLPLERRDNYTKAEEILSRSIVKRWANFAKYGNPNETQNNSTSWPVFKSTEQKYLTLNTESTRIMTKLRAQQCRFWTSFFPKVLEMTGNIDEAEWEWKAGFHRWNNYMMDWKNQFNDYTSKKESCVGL

Consider `COc1cc(C=CC(=O)OC2C(COC3OCC(O)(CO)C3O)OC(OCCc3ccc(O)c(O)c3)C(O)C2OC2OC(C)C(O)C(O)C2O)ccc1O` (stereo not drawn) [Alyssonoside], for which the inhibition at 100 µg/mL on BChE [1] (setting [6]) was 13 ± 2.07%; on AChE [2] (setting [6]), less than 0%.

Consider `CC(C)(O)[C@@H]1CC[C@](C)([C@H]2[C@@H](O)C[C@@]3(C)[C@@H]4C[C@H](O[C@@H]5O[C@H](CO)[C@@H](O)[C@H](O)[C@H]5O)[C@H]5C(C)(C)[C@@H](O[C@@H]6OC[C@@H](O)[C@H](O)[C@H]6O)CC[C@@]56C[C@@]46CC[C@]23C)O1` [Astragaloside IV], for which the inhibition at 100 µg/mL on BChE [1] turned out to be 6.62 ± 2.72%; at AChE [2] (setting [6]) it was 4.8 ± 0.05%.

As to `CC(=O)OC1C(O)COC(OC2CCC34CC35CCC3(C)C(C6(C)CCC(C(C)(C)O)O6)C(O)CC3(C)C5CC(OC3OC(CO)C(O)C(O)C3O)C4C2(C)C)C1OC(C)=O` (stereo not drawn) [Astragaloside I], the values for the inhibition at 100 µg/mL at BChE [1] and on AChE [2] (setting [6]) were 8.38 ± 1.28% and less than 0%, respectively.

Regarding `CC(C)(O)[C@@H]1CC[C@](C)([C@H]2[C@@H](O)C[C@@]3(C)[C@@H]4C[C@H](O[C@@H]5O[C@H](CO)[C@@H](O)[C@H](O)[C@H]5O)[C@H]5C(C)(C)[C@@H](O[C@@H]6OC[C@@H](O)[C@H](O)[C@H]6O[C@@H]6O[C@H](CO)[C@@H](O)[C@H](O)[C@H]6O)CC[C@@]56C[C@@]46CC[C@]23C)O1` [Astragaloside VI], the figures for the inhibition at 100 µg/mL on BChE [1] and at AChE [2] (setting [6]) were 7.72 ± 0.53% and 6.23 ± 2.82%, respectively.

Take `CC(=O)OC1C(O)COC(OC2CCC34CC35CCC3(C)C(C6(C)CCC(C(C)(C)O)O6)C(O)CC3(C)C5CC(OC3OCC(O)C(O)C3O)C4C2(C)C)C1OC(C)=O` (stereo not drawn) [Astrasieversianin II]: the inhibition at 100 µg/mL came out at 13.6 ± 1.79% at BChE [1] and 8.01 ± 0.48% at AChE [2] (setting [6]).

For `CC(C)(O)C1CCC(C)(C2C(O)CC3(C)C4CC(OC5OCC(O)C(O)C5O)C5C(C)(C)C(OC6OCC(O)C(O)C6O)CCC56CC46CCC23C)O1` (stereo not drawn) [Astrasieversianin X], the inhibition at 100 µg/mL on BChE [1] stood at 10.1 ± 2.34%; at AChE [2] (setting [6]), 8.6 ± 0.91%.

For the molecule `CC(CCC(O)C(C)(C)O)C1C(O)CC2(C)C3CC(OC4OC(CO)C(O)C(O)C4O)C4C(C)(C)C(OC5OCC(O)C(O)C5O)CCC45CC35CCC12C` (stereo not drawn) [Cyclocanthoside E], the inhibition at 100 µg/mL was found to be 5.35 ± 1.82% at BChE [1] and 2.18 ± 1.81% at AChE [2] (setting [6]).

With `CC(CCC(O)C(C)(C)O)C1C(O)CC2(C)C3CC(OC4OC(CO)C(O)C(O)C4O)C4C(C)(C)C(OC5OCC(O)C(O)C5OC5OC(CO)C(O)C(O)C5O)CCC45CC35CCC12C` (stereo not drawn) [Cyclocanthoside G], the inhibition at 100 µg/mL at BChE [1] worked out at 8.23 ± 0.24%; on AChE [2] (setting [6]), 6.85 ± 0.72%.

As for `C[C@@H]1CC[C@@]2(OC1)O[C@H]1C[C@H]3[C@@H]4CC=C5C[C@@H](O)CC[C@]5(C)[C@H]4CC[C@]3(C)[C@H]1[C@@H]2C` [Diosgenin], the inhibition at 100 µg/mL at BChE [1] was 8.12 ± 2.64%; at AChE [2] (setting [6]), 4.31 ± 0.37%. Also, the “IC50 AChE” value in assay [3] is 103.60 µg/mL (≈ 250 µM).

For the molecule `COc1ccc2c3c1O[C@H]1C[C@@H](O)C=C[C@@]31CCN(C)C2` [Galanthamine HBr, reference compound], on BChE [1], the inhibition at 100 µg/mL was found to be 60.3 ± 1.36%.

`C[C@@H]1CC[C@@]2(OC1)O[C@H]1C[C@H]3[C@@H]4CC[C@H]5C[C@@H](O)CC[C@]5(C)[C@H]4CC(=O)[C@]3(C)[C@H]1[C@@H]2C` [Hecogenin]: on BChE [1], the inhibition at 100 µg/mL was determined as 17.3 ± 1.84%. For the same molecule, on AChE [2] (setting [6]), the “ChE Inhibition (Inhibition % ± S.D. at 100 µg/mL) AChE” value is on record as 25.36 ± 1.11% and the inhibition at 100 µg/mL was 25%.

As for `COC(=O)C1=COC(OC2OC(CO)C(O)C(O)C2O)C2C(C)(O)CCC12O` (stereo not drawn) [Ipolamide], the inhibition at 100 µg/mL was 12.4 ± 2.28% on BChE [1] (setting [6]) and less than 0% at AChE [2] (setting [6]).

As to `COc1cc2nc3occc3c(OC)c2cc1OC` [Kokusaginine], the 50% inhibitory concentration (IC50) – broadly, the concentration that inhibits the measured activity by half – was 237 µM on BChE [1] and 271 µM against AChE [2]. The inhibition at 100 µg/mL on BChE [1] (setting [6]) is 67.4 ± 3.1%; at AChE [2] (setting [6]), 62.4 ± 3.2%.

Regarding `COC(=O)C1=COC(OC2OC(CO)C(O)C(O)C2O)C2C1(O)CC(O)C2(C)O` (stereo not drawn) [Lamiide], the inhibition at 100 µg/mL was 8.77 ± 0.92% on BChE [1] (setting [6]) and less than 0% on AChE [2] (setting [6]).

For `O=C(O)C1OC(Oc2cc(O)c3c(=O)cc(-c4ccc(O)c(O)c4)oc3c2)C(O)C(O)C1O` (stereo not drawn) [Luteolin-7-O-glucuronide], the inhibition at 100 µg/mL on BChE [1] and on AChE [2] (setting [6]) was less than 0% throughout.

For the molecule `CC(=O)OC1C(OC(CCC(C)C2CCC3(C)C4C(O)CC5C(C)(C)C(OC6OC(C)C(O)C(O)C6O)CC(O)C56CC46CCC23C)C(C)(C)O)OCC(O)C1O` (stereo not drawn) [Macrophyllosaponin A], the values for the inhibition at 100 µg/mL at BChE [1] and on AChE [2] (setting [6]) were 12.2 ± 1.83% and 9.69 ± 0.85%, respectively.

Take `CC(CCC(OC1OCC(O)C(O)C1O)C(C)(C)O)C1CCC2(C)C3C(O)CC4C(C)(C)C(OC5OC(C)C(O)C(O)C5O)CC(O)C45CC35CCC12C` (stereo not drawn) [Macrophyllosaponin B]: the inhibition at 100 µg/mL at BChE [1] stood at 12.2 ± 1.16%; on AChE [2] (setting [6]), 13.2 ± 0.92%.

For `CC(CCC(O)C(C)(C)OC1OCC(O)C(O)C1O)C1CCC2(C)C3C(O)CC4C(C)(C)C(OC5OC(C)C(O)C(O)C5O)CC(O)C45CC35CCC12C` (stereo not drawn) [Macrophyllosaponin C], the results for the inhibition at 100 µg/mL on BChE [1] and at AChE [2] (setting [6]) were 16.5 ± 1.57% and 12.4 ± 1.4%, respectively.

`CC(CCC(OC1OCC(O)C(O)C1OC1OCC(O)C(O)C1O)C(C)(C)O)C1CCC2(C)C3C(O)CC4C(C)(C)C(OC5OC(C)C(O)C(O)C5O)CC(O)C45CC35CCC12C` (stereo not drawn) [Macrophyllosaponin D]: the figures for the inhibition at 100 µg/mL at BChE [1] and at AChE [2] (setting [6]) were 10.1 ± 0.78% and 4.31 ± 1.32%, respectively.

`COC(=O)[C@@H](Cc1ccc(O)c(O)c1)OC(=O)/C=C/c1ccc(O)c(O)c1` [Methyl rosmarinate]: at BChE [1], the concentration for half-maximal inhibition (IC50) is 111 µM. Moreover, the figures for the inhibition at 100 µg/mL at BChE [1] (setting [6]) and on AChE [2] (setting [6]) were 82.74 ± 0.62% and 16.8 ± 3.84%, respectively.

As to `CC1CCC2(OC1)OC1CC3C4CCC5CC(O)CCC5(C)C4CC(O)C3(C)C1C2C` (stereo not drawn) [Rockogenin], the inhibition at 100 µg/mL on BChE [1] worked out at 15.2 ± 2.56%; on AChE [2] it was 5.29 ± 0.52%.

On to `C[C@@H]1CC[C@@]2(OC1)O[C@H]1C[C@H]3[C@@H]4CC[C@@H]5C[C@@H](O)CC[C@]5(C)[C@H]4CC[C@]3(C)[C@H]1[C@@H]2C` [Smilagenin], for which the inhibition at 100 µg/mL at BChE [1] was found to be 15 ± 3.01%; on AChE [2] (setting [6]) it was 62.4 ± 2.44%. In addition, the half-maximal inhibitory concentration (IC50) against AChE [2] was 104 µM; on AChE [4] (read-out: IC50 AChE, compound isolated from Asparagus racemosus), 9.9 µM; on BChE [5] (compound isolated from Asparagus racemosus), 5.4 µM.

Regarding `C[C@@H]1CC[C@@]2(OC1)O[C@H]1C[C@H]3[C@@H]4CC[C@H]5C[C@@H](O)CC[C@]5(C)[C@H]4CC[C@]3(C)[C@H]1[C@@H]2C` [Tigogenin], on BChE [1], the inhibition at 100 µg/mL is 22.2 ± 3.09%. For the same molecule, on AChE [2] (setting [6]), the “ChE Inhibition (Inhibition % ± S.D. at 100 µg/mL) AChE” value was found to be 17.09 ± 0.69% and the inhibition at 100 µg/mL came out at 17%.

As to `C[C@@H]1O[C@@H](O[C@@H]2[C@@H](O)[C@H](OCCc3ccc(O)c(O)c3)O[C@H](CO)[C@H]2OC(=O)/C=C/c2ccc(O)c(O)c2)[C@H](O)[C@H](O)[C@H]1O` [Verbascoside], the inhibition at 100 µg/mL turned out to be 22.2 ± 2.54% on BChE [1] and 8.12 ± 1.49% at AChE [2] (setting [6]). Besides, the IC50 is 304 µM on AChE [4] (Calceolaria talcana study, read-out: IC50 AChE (converted)) and 170 µM on BChE [5] (Calceolaria talcana study). Further, the AChE inhibition at AChE [4] (at 100 μg/mL, from Pseuderanthemum carruthersii) is reported as less than 50%. Also, at AChE [4] (setting [7]), the “ChE inhibition (AChE)” value is recorded as “below 30%”. Besides, the “inhibition against AChE” value on AChE [4] (isolated from Olea europea L.) is “no inhibition”. The “ChE inhibition (BChE)” value on BChE [5] (setting [7]) is on record as “below 30%”. At BChE [5] (isolated from Olea europea L.), the “inhibition against BChE” value was “no inhibition”.

As to Forsythoside B, at BChE [1] (setting [6]), the “ChE Inhibition (Inhibition % ± S.D. at 100 µg/mL) BChE” value is 14.80 ± 2.31%. Further, on AChE [4] (Calceolaria talcana study), the AChE inhibition entry is reported as “no AChE inhibition”.

For the molecule tannic acid [reference compound], in assay [3], the “IC50 AChE” value is 0.10 µg/mL.

(Values after publication PMC8037418, “Outlining In Vitro and In Silico Cholinesterase Inhibitory Activity of Twenty-Four Natural Products of Various Chemical Classes: Smilagenin, Kokusaginine, and Methyl Rosmarinate as Emboldening Inhibitors” (Molecules, 2021).)
